Results published in ChEMBL document CHEMBL6096731, “Structure-Guided Optimization and Preclinical Evaluation of 6-O-Benzylguanine-Based Pin1 Inhibitor for Hepatocellular Carcinoma Treatment” (J Med Chem, 2025).
The source made the active and inactive calls. The calls are words filed in the database; no cut-off is given here.

Experiments:
[1] = target: T1, Peptidyl-prolyl cis-trans isomerase NIMA-interacting 1 (Homo sapiens, UniProt Q13526); assay: Inhibition of full length pin1 (unknown origin) expressed in Escherichia coli
[2] = Antiproliferative activity against human HCC cells assessed as cell viability incubated for 72 hrs by alamar blue dye based assay; assay type: toxicity; conditions: HCC cells
[3] = target: Peptidyl-prolyl cis-trans isomerase NIMA-interacting 4 (Homo sapiens) (UniProt Q9Y237); assay: Inhibition of full length pin4 (unknown origin) expressed in Escherichia coli
[4] = organism: Homo sapiens; assay: Inhibition of FKBP12 (unknown origin) expressed in Escherichia coli
[5] = target: Peptidyl-prolyl cis-trans isomerase A (Homo sapiens) (UniProt P62937); assay: Inhibition of Cyclophilin A (unknown origin) expressed in Escherichia coli
[6] = target: T1, Peptidyl-prolyl cis-trans isomerase NIMA-interacting 1; assay: Binding affinity to GST-tagged pin1 (unknown origin) assessed as thermal stabilization at 1 uM at 48 to 58 degreeC by cellular thermal shift assay
[7] = target: T1, Peptidyl-prolyl cis-trans isomerase NIMA-interacting 1; assay: Binding affinity to GST-tagged pin1 (unknown origin) assessed as dissociation constant by SPR analysis
[8] = target: T1, Peptidyl-prolyl cis-trans isomerase NIMA-interacting 1; assay: Inhibition of pin1 in human SK-HEP1 cells at 5 uM by mass spectrometry analysis; assay type: cell-based
[9] = Chemical stability of compound at pH 7 measured after 24 hrs by HPLC analysis; assay type: physicochemical; conditions: buffer, pH 7, 24 h
[10] = Chemical stability of compound by HPLC analysis; assay type: physicochemical
[11] = system: SK-HEP1; assay: Antiproliferative activity human SK-HEP1 cells assessed as cell viability measured up to 120 hrs; assay type: functional, cell-based
[12] = system: SK-HEP1; assay: Antiproliferative activity human SK-HEP1 cells assessed as cell viability measured at 96 hrs; assay type: functional, cell-based
[13] = system: SK-HEP1; assay: Antiproliferative activity human SK-HEP1 cells assessed as cell viability measured at 120 hrs; assay type: functional, cell-based
[14] = system: SK-HEP1; assay: Antiproliferative activity human SK-HEP1 cells assessed as inhibition of cell proliferation incubated for 120 hrs; assay type: functional, cell-based; conditions: dose <= 2.0 µM
[15] = system: Hep 3B2; assay: Antiproliferative activity human Hep3B cells assessed as inhibition of cell proliferation incubated for 120 hrs; assay type: functional, cell-based
[16] = system: SK-HEP1; assay: Induction of cell cycle arrest in human SK-HEP1 cells assessed as accumulation of cells at S phase by PI staining based flow cytometry analysis; assay type: functional
[17] = system: HCC; assay: Induction of apoptosis in human HCC cells at 5 uM by Annexin V/FITC staining based flow cytometry analysis; assay type: functional, cell-based
[18] = system: SK-HEP1; assay: Inhibition of cell migration in human SK-HEP1 cells at 5 uM incubated for 24 hrs by crystal violet staining based microscopic analysis; assay type: functional
[19] = system: SK-HEP1; assay: Inhibition of cell migration in human SK-HEP1 cells at 5 uM incubated for 24 hrs by wound healing assay; assay type: functional, cell-based
[20] = target: T1, Peptidyl-prolyl cis-trans isomerase NIMA-interacting 1; assay: Inhibition of pin1 in human SK-HEP1 cells assessed as reduction in c-myc level at 5 uM incubated for 24 hrs by immunoblotting analysis; assay type: cell-based
[21] = target: T1, Peptidyl-prolyl cis-trans isomerase NIMA-interacting 1; assay: Inhibition of pin1 in human SK-HEP1 cells assessed as reduction in beta-catenin level at 5 uM incubated for 24 hrs by immunoblotting analysis; assay type: cell-based
[22] = Drug localization in nucleus of human SK-HEP1 cells at 5 uM incubated for 24 hrs by Hoechst 33342 staining based fluorescence microscopic analysis; assay type: ADME, subcellular; conditions: sk-hep1, 24 h
[23] = system: SK-HEP1; assay: Upregulation of miR-29b expression in human SK-HEP1 cells at 5 uM incubated for 36 hrs by RT-PCR analysis; assay type: functional, cell-based
[24] = system: SK-HEP1; assay: Upregulation of miR-122 expression in human SK-HEP1 cells at 5 uM incubated for 36 hrs by RT-PCR analysis; assay type: functional, cell-based
[25] = system: SK-HEP1; assay: Upregulation of miR-146a expression in human SK-HEP1 cells at 5 uM incubated for 36 hrs by RT-PCR analysis; assay type: functional, cell-based
[26] = system: SK-HEP1; assay: Upregulation of let7a expression in human SK-HEP1 cells at 5 uM incubated for 36 hrs by RT-PCR analysis; assay type: functional, cell-based
[27] = system: SK-HEP1; assay: Antiproliferative activity against human SK-HEP1 cells transfected with human pin1 assessed as cell viability at 5 uM incubated for 72 hrs; assay type: functional, cell-based
[28] = system: SK-HEP1; assay: Antitumor activity against human SK-HEP1 cells xenografted in female BALB/c mouse assessed as reduction in tumor growth at 2.5 mg/kg, po measured every 4 days; assay type: functional, organism-based; conditions: time 4.0 day
[29] = Toxicity in female BALB/c mouse implanted with human SK-HEP1 cells assessed as effect on body weight at 2.5 mg/kg, po measured every 4 days; assay type: organism-based; conditions: in vivo, 96 h, time 4 day
[30] = system: SK-HEP1; assay: Antitumor activity against human SK-HEP1 cells xenografted in female BALB/c mouse assessed as downregulation of c-myc level at 2.5 mg/kg, po measured every 4 days by immunoblotting analysis; assay type: functional, organism-based; conditions: time 4.0 day
[31] = system: SK-HEP1; assay: Antitumor activity against human SK-HEP1 cells xenografted in female BALB/c mouse assessed as downregulation of beta-catenin level at 2.5 mg/kg, po measured every 4 days by immunoblotting analysis; assay type: functional, organism-based; conditions: time 4.0 day
[32] = target: Peptidyl-prolyl cis-trans isomerase NIMA-interacting 1 (Mus musculus) (UniProt Q9QUR7); assay: Binding affinity to mouse pin1
[33] = system: SK-HEP1; assay: Antitumor activity against human SK-HEP1 cells xenografted in c-Myc/Alb-Cre transgenic female BALB/c mouse model assessed as downregulation of beta-catenin level in liver at 2.5 mg/kg, po measured every 4 days by immunoblotting analysis; assay type: functional, organism-based; conditions: time 4.0 day
[34] = system: SK-HEP1; assay: Antitumor activity against human SK-HEP1 cells xenografted in c-Myc/Alb-Cre transgenic female BALB/c mouse model assessed as downregulation of c-myc level in liver at 2.5 mg/kg, po measured every 4 days by immunoblotting analysis; assay type: functional, organism-based; conditions: time 4.0 day
[35] = Drug distribution in BALB/c mouse liver measured after 24 hrs by HPLC analysis; assay type: ADME, tissue-based; conditions: in vivo
[36] = Drug distribution in BALB/c mouse tumor measured after 24 hrs by HPLC analysis; assay type: ADME, tissue-based, Neoplasm; conditions: in vivo
[37] = system: SK-HEP1; assay: Antitumor activity against human SK-HEP1 cells xenografted in female BALB/c mouse assessed as increase in pin1 level in brain at 2.5 mg/kg, po measured every 4 days; assay type: functional, organism-based; conditions: time 4.0 day
[38] = system: SK-HEP1; assay: Antitumor activity against human SK-HEP1 cells xenografted in female BALB/c mouse assessed as increase in pin1 level in liver at 2.5 mg/kg, po measured every 4 days; assay type: functional, organism-based; conditions: time 4.0 day
[39] = system: SK-HEP1; assay: Antitumor activity against human SK-HEP1 cells xenografted in female BALB/c mouse assessed as increase in pin1 level in spleen at 2.5 mg/kg, po measured every 4 days; assay type: functional, organism-based; conditions: time 4.0 day
[40] = system: SK-HEP1; assay: Antitumor activity against human SK-HEP1 cells xenografted in female BALB/c mouse assessed as increase in pin1 level in kidney at 2.5 mg/kg, po measured every 4 days; assay type: functional, organism-based; conditions: time 4.0 day
[41] = system: SK-HEP1; assay: Antitumor activity against human SK-HEP1 cells xenografted in female BALB/c mouse assessed as increase in pin1 level in heart at 2.5 mg/kg, po measured every 4 days; assay type: functional, organism-based; conditions: time 4.0 day
[42] = system: SK-HEP1; assay: Antitumor activity against human SK-HEP1 cells xenografted in female BALB/c mouse assessed as increase in pin1 level in tumor at 2.5 mg/kg, po measured every 4 days; assay type: functional, organism-based; conditions: time 4.0 day
[43] = Metabolic stability in mouse microsomes measured after 120 mins; assay type: ADME, Liver, Microsome; conditions: 2 h
[44] = Toxicity in c-Myc/Alb-Cre transgenic mouse assessed as effect on ALT level at 2.5 mg/kg, po; assay type: organism-based; conditions: in vivo
[45] = Toxicity in c-Myc/Alb-Cre transgenic mouse assessed as effect on AST level at 2.5 mg/kg, po; assay type: organism-based; conditions: in vivo
[46] = Toxicity in c-Myc/Alb-Cre transgenic mouse assessed as effect on TP level at 2.5 mg/kg, po; assay type: organism-based; conditions: in vivo
[47] = Toxicity in c-Myc/Alb-Cre transgenic mouse assessed as effect on ALP level at 2.5 mg/kg, po; assay type: organism-based; conditions: in vivo
[48] = Toxicity in c-Myc/Alb-Cre transgenic mouse assessed as effect on TBIL level at 2.5 mg/kg, po; assay type: organism-based; conditions: in vivo
[49] = Toxicity in c-Myc/Alb-Cre transgenic mouse assessed as effect on ALB level at 2.5 mg/kg, po; assay type: organism-based; conditions: in vivo
[50] = Toxicity in c-Myc/Alb-Cre transgenic mouse assessed as heart damage at 2.5 mg/kg, po; assay type: organism-based; conditions: in vivo
[51] = Toxicity in c-Myc/Alb-Cre transgenic mouse assessed as liver damage at 2.5 mg/kg, po; assay type: organism-based; conditions: in vivo
[52] = Toxicity in c-Myc/Alb-Cre transgenic mouse assessed as spleen damage at 2.5 mg/kg, po; assay type: organism-based; conditions: in vivo
[53] = Toxicity in c-Myc/Alb-Cre transgenic mouse assessed as lung damage at 2.5 mg/kg, po; assay type: organism-based; conditions: in vivo
[54] = Toxicity in c-Myc/Alb-Cre transgenic mouse assessed as kidney damage at 2.5 mg/kg, po; assay type: organism-based; conditions: in vivo
[55] = target: Voltage-gated inwardly rectifying potassium channel KCNH2 (Homo sapiens, UniProt Q12809)
Voltage-gated inwardly rectifying potassium channel KCNH2, sequence (Q12809 whole entry): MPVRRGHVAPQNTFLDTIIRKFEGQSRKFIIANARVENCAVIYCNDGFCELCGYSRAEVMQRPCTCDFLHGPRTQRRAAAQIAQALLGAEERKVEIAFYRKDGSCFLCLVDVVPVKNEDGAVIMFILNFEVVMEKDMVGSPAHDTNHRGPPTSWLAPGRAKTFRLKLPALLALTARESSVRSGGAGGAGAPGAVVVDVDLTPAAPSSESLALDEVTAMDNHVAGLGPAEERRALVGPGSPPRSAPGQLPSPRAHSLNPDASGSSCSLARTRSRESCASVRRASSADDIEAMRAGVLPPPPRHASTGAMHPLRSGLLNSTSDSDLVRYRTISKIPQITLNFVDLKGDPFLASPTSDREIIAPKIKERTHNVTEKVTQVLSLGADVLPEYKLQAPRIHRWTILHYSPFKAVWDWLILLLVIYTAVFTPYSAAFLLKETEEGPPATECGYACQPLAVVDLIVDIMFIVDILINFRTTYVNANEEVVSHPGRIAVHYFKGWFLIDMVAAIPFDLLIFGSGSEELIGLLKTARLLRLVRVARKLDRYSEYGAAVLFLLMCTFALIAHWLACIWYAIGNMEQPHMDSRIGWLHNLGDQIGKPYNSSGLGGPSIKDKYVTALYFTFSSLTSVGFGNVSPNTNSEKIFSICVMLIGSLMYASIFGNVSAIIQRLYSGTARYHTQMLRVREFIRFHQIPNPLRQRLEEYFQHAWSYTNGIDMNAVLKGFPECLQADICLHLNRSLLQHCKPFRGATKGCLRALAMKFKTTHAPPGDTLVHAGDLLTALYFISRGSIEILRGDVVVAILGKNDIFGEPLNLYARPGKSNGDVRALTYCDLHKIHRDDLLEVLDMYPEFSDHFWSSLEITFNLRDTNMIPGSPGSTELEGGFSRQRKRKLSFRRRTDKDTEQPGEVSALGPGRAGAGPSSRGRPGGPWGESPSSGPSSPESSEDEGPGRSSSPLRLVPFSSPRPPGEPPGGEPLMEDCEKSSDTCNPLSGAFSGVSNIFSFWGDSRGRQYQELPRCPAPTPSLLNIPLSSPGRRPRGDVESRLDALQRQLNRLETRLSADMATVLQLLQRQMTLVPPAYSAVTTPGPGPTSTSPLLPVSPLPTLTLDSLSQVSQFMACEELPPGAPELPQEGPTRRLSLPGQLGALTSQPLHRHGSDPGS

T1 sequence (Q13526 whole entry): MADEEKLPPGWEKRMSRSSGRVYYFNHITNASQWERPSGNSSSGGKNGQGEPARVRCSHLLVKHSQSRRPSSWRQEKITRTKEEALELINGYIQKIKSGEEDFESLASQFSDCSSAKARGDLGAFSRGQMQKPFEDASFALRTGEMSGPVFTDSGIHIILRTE
Peptidyl-prolyl cis-trans isomerase A (Homo sapiens), sequence (P62937 whole entry, looked up): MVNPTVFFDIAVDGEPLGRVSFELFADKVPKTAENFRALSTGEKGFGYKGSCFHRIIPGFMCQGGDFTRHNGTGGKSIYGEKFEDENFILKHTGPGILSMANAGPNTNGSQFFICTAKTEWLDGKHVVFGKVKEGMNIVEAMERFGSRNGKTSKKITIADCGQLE
Peptidyl-prolyl cis-trans isomerase NIMA-interacting 1 (Mus musculus), sequence (Q9QUR7 whole entry): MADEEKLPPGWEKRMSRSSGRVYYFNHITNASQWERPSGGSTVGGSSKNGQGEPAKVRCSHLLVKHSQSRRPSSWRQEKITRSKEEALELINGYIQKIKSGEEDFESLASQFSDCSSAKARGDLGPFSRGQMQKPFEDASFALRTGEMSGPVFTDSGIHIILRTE
Peptidyl-prolyl cis-trans isomerase NIMA-interacting 4 (Homo sapiens), sequence (Q9Y237 whole entry): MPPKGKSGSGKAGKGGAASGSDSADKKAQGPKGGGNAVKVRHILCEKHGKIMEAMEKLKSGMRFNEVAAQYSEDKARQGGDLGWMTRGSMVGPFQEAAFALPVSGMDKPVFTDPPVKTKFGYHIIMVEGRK

With `Nc1nc(OCc2ccc3c(c2)OCO3)c2nc[nH]c2n1` the IC50 [1] was 0.0644 µM, the IC50 at 72 h [2] was 2.6 µM and the inhibition [3] was “inactive”. For the same compound, the inhibition [4] was “inactive”, the inhibition [5] was “inactive” and the Activity [6] was “Active”. The Kd [7] was 0.154 µM, the inhibition [8] was “Active” and the Stability [9] was “Stable”. The Stability [10] was “Stable”, the Activity [11] was “Active” and the Activity [12] was “Active”. The Activity [13] was “Active”, the Activity [14] was “Active” and the Activity [15] was “Active”. For the same compound, the Activity [16] was “Active”, the Activity [17] was “Active” and the inhibition [18] was “Active”. For the same compound, the inhibition [19] was “Active”, the inhibition [20] was “Active” and the inhibition [21] was “Active”. For the same compound, the Drug uptake [22] was “Active”, the Activity [23] was “Active” and the Activity [24] was “Active”. The Activity [25] was “Active”, the Activity [26] was “Active” and the Activity [27] was “Active”. For the same compound, the Activity [28] was “Active”, the Activity [29] was “Non-toxic” and the Activity [30] was “Active”. For the same compound, the Activity [31] was “Active”, the Activity [32] was “Active” and the Activity [33] was “Active”. The Activity [34] was “Active”, the Drug uptake [35] was “Active” and the Drug uptake [36] was “Active”. For the same compound, the Activity [37] was “Active”, the Activity [38] was “Active” and the Activity [39] was “Active”. The Activity [40] was “Active”, the Activity [41] was “Active” and the Activity [42] was “Active”. For the same compound, the Stability [43] was “Stable”, the Activity [44] was “Non-toxic” and the Activity [45] was “Non-toxic”. The Activity [46] was “Non-toxic”, the Activity [47] was “Non-toxic” and the Activity [48] was “Non-toxic”. The Activity [49] was “Non-toxic”, the Activity [50] was “Non-toxic” and the Activity [51] was “Non-toxic”. The Activity [52] was “Non-toxic”, the Activity [53] was “Non-toxic” and the Activity [54] was “Non-toxic”. For the same compound, the IC50 [55] was > 30 µM.
